Results as given in EP2578588A1 (World-Trade Import-Export Wtie, AG, priority 2010, dated 2011).

Target: enzyme PDE-5 (Homo sapiens, UniProt O76074)
Experiment: Phosphodiesterase 5 (PDE-5) inhibition activity in in vitro tests
Type: biochemical
Settings: read-out: CI5C
From the text: The following data illustrate the inhibiting activity of the compounds of the present invention on the enzyme PDE-5.

IC50 | SMILES
6.4 nM | CCCc1nn(C)c2c(=O)[nH]c(-c3cc(S(=O)(=O)N4CCCN(C(C)=O)CC4)ccc3OCC)nc12 [Compound 2, 5-(5-(4-acetyl-1,4-diazepan-1-ylsulfonyl)-2-ethoxyphenyl)-1-methyl-3-propyl-1H-pyrazolo[4,3-d]pyrimidin-7(6H)-one]
2.8 nM | CCCc1nn(C)c2c(=O)[nH]c(-c3cc(S(=O)(=O)N4CCCN(C)CC4)ccc3OCC)nc12 [Compound 3, 5-(2-ethoxy-5-(4-methyl-1,4-diazepan-1-ylsulfonyl)phenyl)-1-methyl-3-propyl-1H-pyrazolo[4,3-d]pyrimidin-7(6H)-one]

More lines, now with the values behind:

SMILES | IC50
CCCc1nn(C)c2c(=O)[nH]c(-c3cc(S(=O)(=O)N4CCCNCC4)ccc3OCC)nc12 [Compound 1, 5-(5-(1,4-diazepan-1-ylsulfonyl)-2-ethoxiphenyl)-1-methyl-3-propyl-1H-pyrazolo[4,3-d]pyrimidin-7(6H)-one] | 4.2 nM
CCCc1nn(C)c2c(=O)[nH]c(-c3cc(S(=O)(=O)N4CCCN(CCCO)CC4)ccc3OCC)nc12 [Compound 4] | 1.8 nM
CCCc1nn(C)c2c(=O)[nH]c(-c3cc(S(=O)(=O)N4CCCN(C(=O)OC(C)(C)C)CC4)ccc3OCC)nc12 [Compound 5, tert-butyl 4-(4-ethoxy-3-(1-methyl-7-oxo-3-propyl-6,7-dihydro-1H-pyrazolo[4,3-d]pyrimidin-5-yl)phenylsulfonyl)-1,4-diazepane-1-carboxylate] | 3.5 nM
CCCc1nn(C)c2c(=O)[nH]c(-c3cc(S(=O)(=O)N4CCCN(C)CC4)cnc3OCC)nc12 [Compound 6, 5-(2-ethoxy-5-(4-methyl-1,4-diazepan-1-ylsulfonyl)pyridin-3-yl)-1-methyl-3-propyl-1H-pyrazolo[4,3-d] pyrimidin-7(6H)-one] | 2.2 nM
CCCc1nn(C)c2c(=O)[nH]c(-c3cc(S(=O)(=O)N4CCCN(CCC(=O)O)CC4)ccc3OCC)nc12 [Compound 7] | 1.2 nM
